Test system: SARS-CoV-2 HR1 target mimic peptide HR1P
Type: binding

CC[C@H](C)[C@H](NC(=O)[C@H](Cc1ccc(O)cc1)NC(=O)[C@H](CO)NC(=O)[C@H](CCC(=O)O)NC(=O)[C@H](CC(N)=O)NC(=O)[C@H](CC(C)C)NC(=O)[C@H](C)NC(=O)[C@H](CCCCN)NC(=O)[C@@H](NC(=O)[C@@H](NC(=O)[C@H](CCC(N)=O)NC(=O)[C@H](CCC(N)=O)NC(=O)[C@H](CC(C)C)NC(=O)[C@H](CO)NC(=O)[C@H](CC(C)C)NC(=O)[C@H](CCSC)NC(=O)[C@H](CCC(=O)O)NC(=O)[C@H](Cc1ccc(O)cc1)NC(=O)[C@@H](NC(=O)[C@H](CC(C)C)NC(=O)[C@H](CC(=O)O)NC(=O)[C@H](CC(C)C)NC(=O)[C@H](CC(C)C)NC(=O)[C@@H](NC(=O)[C@@H](NC(=O)[C@H](CC(N)=O)NC(=O)[C@@H](NC(=O)[C@H](CCC(N)=O)NC(=O)[C@@H](NC(=O)[C@H](CC(C)C)NC(=O)[C@H](CO)NC(C)=O)[C@@H](C)O)[C@@H](C)CC)[C@@H](C)O)[C@@H](C)O)[C@@H](C)O)C(C)C)C(C)C)C(=O)N[C@@H](CC(=O)O)C(=O)N[C@@H](CC(C)C)C(=O)N[C@@H](CCCCN)C(=O)N[C@@H](CCC(=O)O)C(=O)N[C@@H](CC(C)C)C(=O)NCCOCCOCCOCCOCCOCCOCCOCCOCCC(=O)N[C@@H](CCCCNC(=O)CCC(=O)O[C@H]1CC[C@@]2(C)C(=CC[C@H]3[C@@H]4CC[C@H]([C@H](C)CCCC(C)C)[C@@]4(C)CC[C@@H]32)C1)C(N)=O [MERS-LP]
Tm of complex with HR1P (binding stability): 47 °C

CC[C@H](C)[C@H](NC(=O)[C@H](C)NC(=O)[C@H](CCC(=O)O)NC(=O)[C@H](CCC(N)=O)NC(=O)[C@H](CC(C)C)NC(=O)[C@H](CCCNC(=N)N)NC(=O)[C@H](CC(N)=O)NC(=O)[C@H](CCSC)NC(=O)[C@H](CCC(=O)O)NC(=O)[C@H](CC(=O)O)NC(=O)[C@H](CCC(N)=O)NC(=O)[C@H](CC(C)C)NC(=O)[C@H](CC(=O)O)NC(=O)[C@H](CC(C)C)NC(=O)[C@H](Cc1ccccc1)NC(=O)[C@@H](NC(=O)[C@@H](NC(=O)[C@H](CC(N)=O)NC(=O)[C@@H](NC(=O)[C@H](Cc1ccc(O)cc1)NC(=O)[C@H](CC(=O)O)NC(=O)[C@H](CC(C)C)NC(=O)[C@H](CO)NC(C)=O)[C@@H](C)CC)C(C)C)[C@@H](C)O)C(=O)N[C@@H](CCCCN)C(=O)N[C@H](C(=O)N[C@@H](CC(C)C)C(=O)N[C@@H](CC(N)=O)C(=O)N[C@@H](CCC(N)=O)C(=O)N[C@@H](CO)C(=O)N[C@@H](Cc1ccc(O)cc1)C(=O)N[C@H](C(=O)N[C@@H](CC(N)=O)C(=O)N[C@@H](CC(C)C)C(=O)N[C@@H](CCCCN)C(=O)N[C@@H](CC(=O)O)C(=O)N[C@H](C(=O)NCCOCCOCCOCCOCCOCCOCCOCCOCCC(=O)N[C@@H](CCCCNC(=O)CCC(=O)O[C@H]1CC[C@@]2(C)C(=CC[C@H]3[C@@H]4CC[C@H]([C@H](C)CCCC(C)C)[C@@]4(C)CC[C@@H]32)C1)C(N)=O)[C@@H](C)CC)[C@@H](C)CC)C(C)C [OC43-LP]
Tm of complex with HR1P (binding stability): 63 °C

Source: article PMC8330190 (Signal Transduction and Targeted Therapy, 2021)
